Source: patent US20250382305A1 (PTC THERAPEUTICS, INC., priority 2022, published 2025)

Tests used:
[1] = system: ATXN3 pre-mRNA; assay: RT-qPCR Assay to Quantify Exon 4 Skipping in ATXN3 pre-mRNA in Cells; assay type: cell-based; conditions: percent exon 4 skipping in ATXN3 pre-mRNA, RT-qPCR of cell lysates; average IC50
Method in brief: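 Cells plated at 10,000/well onto a 7-point, 3.16-fold DMSO dilution series (duplicates), incubated 24 h at 37 °C, then lysed. Exon 4 skipping measured by one-step RT-qPCR (48 °C RT, 40 cycles); IC50 interpolated from dose-response fit of percent skipping.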

[2] = system: Total ATXN3 (tATXN3) protein; assay: Endogenous Total ATXN3 (tATXN3) Protein Assay (MSD immunoassay of cell lysates); assay type: cell-based; conditions: average IC50, total ATXN3 protein in cell lysate after 48 h with compound (Table 1)
Method in brief: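 Cells in DMEM/10% FBS were plated at 10,000 per well onto 7-point, 3.16-fold compound dilutions in duplicate for 48 h at 37° C, then lysed. Total ATXN3 in lysates was measured by MSD sandwich immunoassay: mouse anti-ATXN3 capture, rabbit anti-ATXN3 detection, SULFO-TAG anti-rabbit. Average IC50 was reported in star bins.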

Row | Compound | IC50 [1] [nM] | IC50 [2] [nM]
1 | Cc1c([C@H]2CC=C(C(=O)O)C[C@@H]2N)sc2c(NCc3cccs3)cc(Cl)nc12 [Compound 446, (4S,5S)-5-amino-4-(5-chloro-3-methyl-7-((thiophen-2-ylmethyl)amino)thieno[3,2-b]pyridin-2-yl)cyclohex-1-ene-1-carboxylic acid] | ≤ 30 | ≤ 30
2 | N[C@H]1CC=CC[C@@H]1c1sc2c(NCc3cccs3)cc(Cl)nc2c1C#Cc1ccncc1Cl [Compound 447, 2-((1S,6S)-6-aminocyclohex-3-en-1-yl)-5-chloro-3-((3-chloropyridin-4-yl)ethynyl)-N-(thiophen-2-ylmethyl)thieno[3,2-b]pyridin-7-amine] | 300 to 1000 | 300 to 1000
3 | [2H]C1=C([2H])C([2H])([2H])[C@@H](c2sc3c(NCc4ccco4)nc(Cl)nc3c2C)[C@H](N)C1([2H])[2H] [Compound 449, 6-((1R,6R)-6-aminocyclohex-3-en-1-yl-2,2,3,4,5,5-d6)-2-chloro-N-(furan-2-ylmethyl)-7-methylthieno[3,2-d]pyrimidin-4-amine] | 300 to 1000 | 30 to 300
4 | C[C@@H]1C=C[C@H](C)[C@H](N)[C@H]1c1sc2c(NCc3ccco3)cc(Cl)nc2c1Cl [Compound 450, 2-((1S,2R,5S,6S)-6-amino-2,5-dimethylcyclohex-3-en-1-yl)-3,5-dichloro-N-(furan-2-ylmethyl)thieno[3,2-b]pyridin-7-amine] | 300 to 1000 | 300 to 1000
5 | CN(Cc1cccs1)c1cc(Cl)nc2c(C#CCCCO)c([C@@H]3CC=CC[C@H]3N)sc12 [Compound 451, 5-(2-((1R,6R)-6-aminocyclohex-3-en-1-yl)-5-chloro-7-(methyl(thiophen-2-ylmethyl)amino)thieno[3,2-b]pyridin-3-yl)pent-4-yn-1-ol] | 30 to 300 | 30 to 300
6 | CN(Cc1ccco1)c1cc(Cl)nc2c(C#CCCCO)c([C@@H]3CC=CC[C@H]3N)sc12 [Compound 452, 5-(2-((1R,6R)-6-aminocyclohex-3-en-1-yl)-5-chloro-7-((furan-2-ylmethyl)(methyl)amino)thieno[3,2-b]pyridin-3-yl)pent-4-yn-1-ol] | 30 to 300 | 30 to 300
7 | CN(Cc1ccccc1)c1cc(Cl)nc2c(C#CCCCO)c([C@H]3CC=CC[C@@H]3N)sc12 [Compound 453, 5-(2-((1S,6S)-6-aminocyclohex-3-en-1-yl)-7-(benzyl(methyl)amino)-5-chlorothieno[3,2-b]pyridin-3-yl)pent-4-yn-1-ol] | 300 to 1000 | 300 to 1000
8 | (1R,2R,3S)-2-amino-3-(3-bromo-5-chloro-7-((thiophen-2-ylmethyl)amino)thieno[3,2-b]pyridin-2-yl)cyclohexan-1-ol and (1S,2S,3R)-2-amino-3-(3-bromo-5-chloro-7-((thiophen-2-ylmethyl)amino)thieno[3,2-b]pyridin-2-yl)cyclohexan-1-ol [Compound 228] | ≤ 30 | ≤ 30
9 | (1R,2S,3R)-2-amino-3-(5-chloro-3-methyl-7-((thiophen-2-ylmethyl)amino)thieno[3,2-b]pyridin-2-yl)cyclohexan-1-ol and (1S,2R,3S)-2-amino-3-(5-chloro-3-methyl-7-((thiophen-2-ylmethyl)amino)thieno[3,2-b]pyridin-2-yl)cyclohexan-1-ol [Compound 374] | 30 to 300 | 30 to 300
10 | (1R,5R,6S)-5-amino-6-(3-bromo-5-chloro-7-((thiophen-2-ylmethyl)amino)thieno[3,2-b]pyridin-2-yl)cyclohex-2-en-1-ol and (1S,5S,6R)-5-amino-6-(3-bromo-5-chloro-7-((thiophen-2-ylmethyl)amino)thieno[3,2-b]pyridin-2-yl)cyclohex-2-en-1-ol [Compound 329] | 30 to 300 | 30 to 300
11 | (1R,5S,6R)-6-amino-5-(3-bromo-5-chloro-7-((thiophen-2-ylmethyl)amino)thieno[3,2-b]pyridin-2-yl)cyclohex-2-en-1-ol and (1S,5R,6S)-6-amino-5-(3-bromo-5-chloro-7-((thiophen-2-ylmethyl)amino)thieno[3,2-b]pyridin-2-yl)cyclohex-2-en-1-ol [Compound 153] | ≤ 30 | ≤ 30
12 | (2-((1S,2S)-2-aminocyclohexyl)-5-chloro-7-((thiophen-2-ylmethyl)amino)thieno[3,2-b]pyridin-3-yl)methanol and (2-((1R,2R)-2-aminocyclohexyl)-5-chloro-7-((thiophen-2-ylmethyl)amino)thieno[3,2-b]pyridin-3-yl)methanol [Compound 360] | 30 to 300 | 30 to 300
13 | (2R,3S)-2-amino-3-(3-bromo-5-chloro-7-((thiophen-2-ylmethyl)amino)thieno[3,2-b]pyridin-2-yl)cyclohexan-1-one and (2S,3R)-2-amino-3-(3-bromo-5-chloro-7-((thiophen-2-ylmethyl)amino)thieno[3,2-b]pyridin-2-yl)cyclohexan-1-one [Compound 192] | ≤ 30 | ≤ 30
